In US20020013478A1, “Calanolide analogues and methods of their use” (Sarawak Medichem Pharmaceuticals,Inc., priority 1994, published 2002):
Where two headings read alike, the source gives them in different places.

Legend:
HIV-1 = test: microbe, parasite or virus in culture; details: Human immunodeficiency virus 1, CEM-SS
2.2.15 cells = test: Toxicity in 2.2.15 cells, neutral red dye uptake; type: cell-based, human; details: Table II, read-out: HBV IC50
Experimental: Cells of 2.2.15 were grown to confluence in 96-well flat-bottomed tissue culture plates and treated with compounds (in 0.2 mL culture medium/well) as described above. Four concentrations of each compound were assayed, each in triplicate cultures, in 3- to 10-fold steps. Untreated control cultures were maintained on each 96-well plate. On each 96-well plate, wells containing no cells were used to correct for light scattering.

Raji or Daudi cells = test: Toxicity run with the EBV assay; type: cell-based, human; details: Table II
Excerpt: IC50 (50% inhibitory concentration) is the concentration required to inhibit cell proliferation by 50%

CEM-SS cells = test: CEM-SS MTT assay, cytotoxicity (Table I); type: cell-based, human
[1] = test system: HCMV isolates Towne, AD169, E. Mann, Coffman, C9208; test: Anti-CMV plaque reduction assay against various laboratory and clinical isolates (Example 40); type: cell-based, human cytomegalovirus

Compound	EC50 (HIV-1) [µM]	IC50 (2.2.15 cells; Homo sapiens) [µM]	IC50 (Raji or Daudi cells; Homo sapiens) [µg/mL]	IC50 (CEM-SS cells; Homo sapiens) [µM]	EC50 ([1]; Human betaherpesvirus 5, AD169, isolate AD169) [µM]	EC50 ([1]; Human betaherpesvirus 5, AD169, isolate C9208) [µM]	EC50 ([1]; Human betaherpesvirus 5, AD169, isolate Coffman) [µM]	EC50 ([1]; Human betaherpesvirus 5, AD169, isolate E. Mann) [µM]	EC50 ([1]; Human betaherpesvirus 5, AD169, isolate Towne) [µM]	IC50 (2.2.15 cells) [µM]	EBV IC50 (Raji or Daudi cells) [µg/mL]	IC50 (CEM-SS cells) [µM]	EC50 ([1]; isolate AD169) [µM]	EC50 ([1]; isolate C9208) [µM]	EC50 ([1]; isolate Coffman) [µM]	EC50 ([1]; isolate E. Mann) [µM]	EC50 ([1]; isolate Towne) [µM]
CCCc1cc(=O)oc2c3c(c4c(c12)OC(C)(C)C=C4)O[C@H](C)[C@@H](C)C3=O [(+)-7, 10(R),11(R)-trans-Dihydro6,6,10,11-tetramethyl-4-propyl-2H,6H,12H-benzo [1,2-b:3,4-b′:5,6-b″]tripyran-2,12-dione]	0.68	57	> 50	72.8	3.16	4.91	4.78	4.65	5.02	–	–	–	–	–	–	–	–
CCCc1cc(=O)oc2c3c(c4c(c12)OC(C)(C)C=C4)OC(C)C(C)C3=O (racemic) [(±)-7a]	–	–	–	–	–	–	–	–	–	32	>50	12	3.16	2.6	3.16	3.16	3.08
